# In US20240374564A1, “NOVEL SEROTONIN DERIVATIVES AND THEIR USES FOR TREATING IRON-ASSOCIATED DISORDERS” (priority 2021, published 2024):
# Experiments:
# [1] = system: Tph1 KO mice; test: Model 2 Tph1 KO mice, first round: red blood cells production and iron overload; type: in vivo, mouse; conditions: for anemic phenotype / RBC count / hemoglobin / hematocrit contents / heme content in red blood cells / mean cellular volume (MCV): Ip injection; for RBC count: day 1 to 5, FIG. 2A; for hemoglobin: day 1 to 5, FIG. 2B; for hematocrit contents: day 1 to 5, FIG. 2C; for heme content in red blood cells: day 1 to 5, FIG. 2D; for mean cellular volume (MCV): day 1 to 5, FIG. 2E; for iron content in spleen / iron content in bone marrow: day 5 after sacrifice; for iron content in spleen: FIG. 2F; for iron content in bone marrow: FIG. 2G
# Source text: (§1) This model is a peripheral serotonin deficient mice. It is a mouse model of low risk myelodysplastic syndrome, with ineffective erythropoiesis, light anemia, iron overload (spleen), abnormal red blood cells and apoptosis of proerythroblasts (see Côté et al., PNAS, 2003, 100 (23), 13525-13530).
# (§2) Mouse models Tph1 KO with ineffective erythropoiesis and iron overload received intraperitoneal (Ip) injection of A1, A3, A4 derivatives or serotonin starting on day 0.
# (§3) In a first round of experiments, a complete red blood cells count (RBC) was achieved on day 1, day 2 and day 5.
# (§4) On day 5, the animals were sacrificed and histology of their organs and iron measurement in organs was carried out.
# [2] = system: Hbb^Th1/th1 mice; test: Model 1 Hbb^Th1/th1 mice, first round: red blood cells production and iron overload; type: in vivo, mouse; conditions: for RBC count / hemoglobin / hematocrit contents: Ip injection; for RBC count: day 1 to 5, FIG. 1A; for hemoglobin: day 1 to 5, FIG. 1B; for hematocrit contents: day 1 to 5, FIG. 1C; for iron content in bone marrow / iron content in spleen: day 5 after sacrifice, FIG. 1D
# Source text: (§5) Hbb^th1/th1 mice carry a 3.7-kb homozygous spontaneous deletion that eliminates the Hemoglobin Subunit Beta (HBB) gene and 2 kb of the 5′ flanking region, including the promoter. On the basis of genetic and hematological criteria, these mice constitute the first animal model of beta-thalassemia.
# (§6) Mouse models Hbb^Th1/Th1 with ineffective erythropoiesis and iron overload received intraperitoneal (Ip) injection of A1 or A3 derivatives starting on day 0.
# as §3, §4
# [3] = system: Tph1 KO mice; test: Model 2 Tph1 KO mice, second round: iron distribution, FACS, ferritin; type: in vivo, mouse; design: condition of the mice compared with controls: dose or concentration left out as unconfirmed
# Source text: as §1, §2
# (§7) In a second round of experiments, a complete red blood cells count (RBC) was achieved on day 2 day 5, day 10, day 15, day 20, day 25 and day 30. 4 mice were sacrificed on day 5 and every 5 days afterward for toxicity tests, Flow Cytometry Analysis and FACS (fluorescence-activated single cell sorting) essentially on bone marrow and spleen, biochemical analysis, iron status (organs, serum and urines), and histology.
# [4] = system: Hamp KO mice; test: Model 3 Hamp KO mice: iron overload; type: in vivo, mouse
# Source text: Hepcidin, encoded by the HAMP gene, is the main regulator of iron homeostasis, and its expression is tightly regulated by signals including iron levels, erythropoietic activity, hypoxia, and inflammation.
# It is a mouse model of hemochromatosis. Hepcidin deficient mice progressively develop multivisceral iron overload; plasma iron overcomes transferrin binding capacity, and nontransferrin-bound iron accumulates in various tissues including pancreas and heart (see Nicolas et al., PNAS 2001, 98 (15), 8780-8785).
# Mouse model of iron overload without ineffective erythropoiesis (Hamp KO) received intraperitoneal (Ip) injection of A3 derivatives or serotonin starting on day 0.
# as §4
# [5] = system: cells from beta-thalassemic patients; test: FACS analysis in cells from beta-thalassemic patients; type: cell-based, human; conditions: cells from beta-thalassemic patients (n=3), FIG. 8D
# Description: In vitro tests were carried out on cells derived from blood of β-thalassemic patients before transfusion
# [6] = system: skin fibroblasts from FA/BPAN patients; test: Western blot analysis of skin fibroblasts from FA/BPAN patients treated with ferric ammonium citrate; type: cell-based, human; conditions: iron overload (FAC 100 uM)
# Description: Further tests were carried out on skin fibroblasts from Friedreich ataxia and Beta-propeller protein-associated neurodegeneration (BPAN) patients, to assess in particular the effects of the compounds of the invention on iron accumulation in both the cytosol and mitochondria of said fibroblasts.
# Cultured skin fibroblasts from Friedreich ataxia patients were used as described in Petit et al., Blood. 2021; 137 (15): 2090-2102 and Ingrassia et al., Front Genet 2017 Feb. 17; 8:18.
# [7] = system: Hbb^Th1/th1 mice; test: Model 1 Hbb^Th1/th1 mice, second round: FACS, RBC, body iron, urinary ferritin; type: in vivo, mouse; design: condition of the mice compared with control: dose or concentration left out as unconfirmed
# Source text: as §5, §6, §7
# ProE and Ebaso are part of phases I-II, EBaso and LBaso are part of phases III-IVa, Poly and Ortho are part of phases IVb-V of cells differentiation. The mature stage is also called “acido”.
# [8] = 5-HT deficient (Tph1 KO) mice, vs PBS
# [9] = Hbb^Th1/th1 mice, flow cytometry, day 13, vs PBS-treated mice
# [10] = Hbb^th1/th1 mice, 21 days of injection, FIG. 5C
smiles,measurement,setting,value
"C#CCNCCc1c[nH]c2ccc(O)cc12.O=CO [Derivative A3, N-(2-(5-hydroxy-1H-indol-3-yl)ethyl)prop-2-yn-1-aminium formate]",anemic phenotype,[1],ameliorate the anemic phenotype
same,RBC count,[1],improved
same,hemoglobin,[1],improved
same,hematocrit contents,[1],improved
same,heme content in red blood cells,[1],improved
same,mean cellular volume (MCV),[1],decrease
same,iron content in spleen,[1],mobilized out of the spleen
same,iron content in bone marrow,[1],relocate into cells of the bone marrow
same,RBC count,[2],improved
same,hemoglobin,[2],improved
same,hematocrit contents,[2],improved
same,iron content in bone marrow,[2],relocate into cells of the bone marrow
same,iron content in spleen,[2],decreased the iron overload in spleen
same,cell blood survival,[3]; [8],increased
same,erythroid expansion,[3]; [8],restored
same,cellular iron misdistribution,"[3]; Tph1 KO mice, 5 days of treatment, vs non-treated, FIG. 7A",corrects cellular iron misdistribution
same,cellular iron misdistribution,"[3]; Tph1 KO mice, 21 days of IP injection, vs PBS, FIG. 7B",corrects cellular iron misdistribution
same,pathological features of ineffective erythropoiesis,"[3]; Tph1 KO mice, 21 days, FIG. 7C",corrects
same,iron overload (ferritin level),"[3]; Tph1 KO mice, 21 days, bone marrow, FIG. 7C",decrease iron overload
same,condition of the mice compared with controls,"[3]; Tph1 KO mice, IP for 5 and 21 days",improved condition of the mice
same,iron level in the liver,"[4]; day 5, FIG. 3B",reduced
same,differentiation of erythroid progenitors,[5],increases differentiation of erythroid progenitors
same,immature/mature ratio,[5],decrease
same,increased p62 expression,[6]; FIG. 9B,~60%
same,decreased FTH expression,[6]; FIGS. 9A-9B,~40%
same,cell survival,"[7]; Hbb^Th1/Th1 mice, vs PBS",increased
same,erythroid expansion,"[7]; Hbb^Th1/Th1 mice, vs PBS",restored
same,maturation arrest,"[7]; Hbb^Th1/Th1 mice, vs PBS",stopped
same,condition of the mice compared with control,"[7]; Hbb^Th1/th1 mice, Ip for 13 and 21 days, vs PBS",improved condition of the mice
same,pathological features of β-thalassemia,"[7]; Hbb^Th1/th1 mice, conclusion from flow cytometry",corrects pathological features of β-thalassemia
same,urinary ferritin levels,"[7]; Hbb^Th1/th1 mice, day 13, vs control mice, FIG. 5D",significant increase
same,percentage Ter-119+CD71+FSC cells (III-IVa) in bone marrow,[7]; [9],decrease
same,percentage and absolute number of Ter-119+CD71−FSC cells (IVb-V) in bone marrow,[7]; [9],increase
same,bone marrow expansion,"[7]; Hbb^th1/th1 mice, 13 days of injection, FIG. 5A",correction of bone marrow expansion
same,iron overload (total body iron content),"[7]; Hbb^th1/th1 mice, 13 days of injection, FIG. 5B",decrease in iron overload
same,ratio immature/mature erythroblasts (Ratio Poly/Acido),"[7]; Hbb^th1/th1 mice, 21 days of injection",restores
same,iron overload (total body iron content),[7]; [10],decrease iron overload
same,number of erythroid progenitors,[7]; [10],Decrease
same,number of mature erythroid cells,[7]; [10],Increase
"NCCc1c[nH]c2ccc(O)cc12 [serotonin, 5-hydroxytryptamine]",anemic phenotype,[1],ameliorate the anemic phenotype
same,RBC count,[1],improved
same,hemoglobin,[1],improved
same,hematocrit contents,[1],improved
same,heme content in red blood cells,[1],improved
same,mean cellular volume (MCV),[1],decrease
same,iron content in spleen,[1],mobilized out of the spleen
same,iron content in bone marrow,[1],relocate into cells of the bone marrow
same,iron level in the blood,"[4]; day 5, FIG. 3A",reduced
same,transferrin saturation,"[4]; day 5, FIG. 3C",reduced
"C#CCN(CC#C)CCc1c[nH]c2ccc(O)cc12 [Derivative A4, 3-(2-(di(prop-2-yn-1-yl)amino)ethyl)-1H-indol-5-ol]",anemic phenotype,[1],ameliorate the anemic phenotype
same,RBC count,[1],improved
same,hemoglobin,[1],improved
same,hematocrit contents,[1],improved
same,heme content in red blood cells,[1],improved
same,mean cellular volume (MCV),[1],decrease
same,iron content in spleen,[1],mobilized out of the spleen
same,iron content in bone marrow,[1],relocate into cells of the bone marrow
"C#CCOc1ccc2[nH]cc(CCN(CC#C)CC#C)c2c1 [Derivative A1, N-(prop-2-yn-1-yl)-N-(2-(5-(prop-2-yn-1-yloxy)-1H-indol-3-yl)ethyl) prop-2-yn-1-amine]",RBC count,[2],improved
same,hemoglobin,[2],improved
same,hematocrit contents,[2],improved
same,iron content in bone marrow,[2],relocate into cells of the bone marrow
same,iron content in spleen,[2],decreased the iron overload in spleen
